Here are results for two molecules from paper PMC12716008 (Chemistry & Biodiversity, 2025).

Converted amounts (≈) assume the structure as drawn. Where two headings read alike, the source gives them in different places.

The test system of assay [1] is MSSA UAMS‐1 biofilm formation. In words: Staphylococcal biofilm inhibition, crystal violet microtitre test (MBIC). Format: cell-based. The conditions noted are these: Staphylococcus aureus, 22 h, read-out: MSSA MBIC.
The test system of assay [2] is Mycobacterium smegmatis (MC^2 155). Kind of assay: Antimycobacterial activity, microtitre Alamar Blue/Presto Blue assay (MIC). It counts as cell-based. The conditions noted are these: Mycolicibacterium smegmatis, read-out: M. smeg MIC.
Assay [3] has as its system methicillin‐resistant S. aureus (MRSA) AH1263 or LAC. In words: Antistaphylococcal activity, broth microdilution (MIC). It counts as cell-based, Staphylococcus aureus. The conditions noted are these: Staphylococcus aureus, MRSA, 18 h, read-out: MRSA MIC.
The subject of assay [4] is methicillin‐sensitive S. aureus (MSSA) UAMS‐1. The description is as above. It counts as cell-based. The conditions noted are these: Staphylococcus aureus, read-out: MSSA MIC.
The subject of assay [5] is African green monkey kidney (Vero) cell line. In words: Cytotoxicity, Presto Blue cell viability. Format: cell-based. The conditions noted are these: Chlorocebus sabaeus, Vero, 72 h, read-out: Vero IC50 ± SD. The method, then:
(§1) The human monocyte (U937) and African green monkey kidney (Vero) cell lines were used in this study to determine the cytotoxic potential of the quinoline derivatives. The cell lines were purchased from Separation Scientific SA (Pty) Ltd. (Johannesburg, South Africa) and maintained in Roswell Park Memorial Institute (RPMI) 1640 and Eagle's Minimal Essential Medium (EMEM), supplemented with 10% heat‐inactivated foetal bovine serum (FBS), 1% antibiotics (100 U/mL penicillin and 100 µg/mL streptomycin) and 1% antifungal agent (250 µg/mL amphotericin B) as previously described. The cells were cultured at 37°C, 5% CO2 in a humidified incubator to 80% confluency. Detachment was achieved by rinsing the cells with phosphate buffer saline followed by the addition of trypsin–EDTA (0.25% trypsin containing 0.01% EDTA). After 5 min, the reaction was inhibited through the addition of supplemented media.
(§2) Cell viability was assessed through the method described by Lall et al., using Presto Blue as the viability reagent. The cells were seeded in a flat‐bottom 96‐well plate (100 µL) at a concentration of 1.0 × 10^6 cells/mL and allowed to adhere for 24 h. The samples were prepared in DMSO at a stock concentration of 20 mM, serially diluted in complete media and added to the plate at a final concentration range of 0.78–100 µM. Controls included a vehicle control (2% DMSO), an untreated cell control, a 0% control (no cells) and actinomycin D, as the positive control, at a final test concentration range of 3.9 × 10^−4 to 0.05 µg/mL. Cells were incubated for 72 h, followed by the addition of 20 µL of Presto Blue reagent to all the wells and an additional 2 h incubation. Cell viability was measured using a VICTOR Nivo Multimode Microplate Reader (PerkinElmer) at an excitation/emission wavelength of 540/590 nm.
(§3) All results are presented as the mean ± standard deviation (where applicable) of experiments done in triplicate and in two or three independent experiments (as stated in each methods section). Descriptive analysis was used to directly compare and rank the compounds and derivatives based on their activity in the biological assays. Additionally, by comparing the antibiofilm activity to the antibacterial activity and the antibacterial activity to the cytotoxicity, selectivity indices were used to assess the preferential activity of the compounds.

A further assay has as its system hepatoma (Hep3B). Particulars: cited from earlier work.
The test system of assay [6] is MRSA AH1263 or LAC biofilm formation. Kind of assay: Staphylococcal biofilm inhibition, crystal violet microtitre test (MBIC). It counts as cell-based. Particulars: Staphylococcus aureus, 22 h, read-out: MRSA MBIC.
In assay [7] the test system is M. smegmatis biofilm formation. Kind of assay: Mycobacterial biofilm inhibition, microtitre antibiofilm assay (MBIC). Particulars: 2–4 days, 37°C, read-out: M. smeg MBIC. It counts as cell-based, Mycobacterium smegmatis.
Assay [8] has as its system Mycobacterium tuberculosis H37Rv (ATCC 27264). Kind of assay: Antimycobacterial activity, microtitre Alamar Blue/Presto Blue assay (MIC). It counts as cell-based. The conditions noted are these: 120 h, read-out: M. tb MIC.
Assay [9] concerns human monocyte (U937) cell line. Kind of assay: Cytotoxicity, Presto Blue cell viability. It counts as cell-based. Particulars: U-937, 72 h, U937 cells, 72 h, read-out: U937 IC50 ± SD. As to the method:
as §1, §2, §3

For `O=Cc1ccc2cccc(O)c2n1` [HQ‐4, 8‐hydroxyquinoline‐2‐carbaldehyde, reference compound], the minimal effective concentration in assay [1] is 740 µM; in assay [6] it was 740 µM; in assay [7] it was >100 µM. The minimum inhibitory concentration (MIC) in assay [2] (MC^2155, 24 h) was > 100 µM; in [3] it was 370 µM (≈ 64.1 µg/mL); in assay [4] (18 h), 370 µM (≈ 64.1 µg/mL); in assay [8], 1 µM (≈ 0.173 µg/mL). Further, in [5], the IC50 was > 100 µM. Moreover, the MTS50 with hepatoma (Hep3B) is 6.25 ± 0.034 µg/mL.
For the molecule `CCCCCOc1cccc2cccnc12` [QD‐1], the minimal effective concentration was 595 µM in assay [1] (S. aureus UAMS‐1 biofilm), 595 µM in [6] (S. aureus AH1263/LAC biofilm) and > 100 µM in assay [7] (Mycolicibacterium smegmatis). Besides, the MIC in assay [2] (MC^2155, M. smegmatis, 24 h, 37°C) was > 100 µM; in assay [3] (S. aureus AH1263/LAC) it was 595 µM (≈ 128 µg/mL); in assay [4] (S. aureus UAMS‐1, 18 h) it was 595 µM (≈ 128 µg/mL); in assay [8] (M. tuberculosis H37Rv, 5 days, 37°C), 100 µM (≈ 21.5 µg/mL). The IC50 in assay [9] and in assay [5] (Vero cells) was > 100 µM in each case.
